Measured values as given in patent publication US4288590A, “7 -[Dα-(4-Hydroxy-1,5-naphthyridine-3-carboxamido)-α-arylacetam ido]-3-(N,N-dimethyl-aminomethylpyridinium) methyl-3-cephem-4-carboxylates” (Bristol-Myers Company, priority 1980, dated 1981).
Structures can show the parent of a compound that is named as a salt.

Assays:
E. coli (Gn-Ia) = assay: In vitro activity, MIC of strain group (Table 2); format: cell-based; details: Escherichia coli, 7 strains, read-out: Geometric mean of MIC
Method: (§1) Minimum inhibitory concentrations (MIC) of BB-S 651, BB-S 669 and BB-S 676 were determined by serial two-fold agar dilution method using Steers' apparatus on Mueller-Hinton agar plate against 15 test organisms for primary screening as shown in Table 1.

E. coli (Gn-Ib) = assay: In vitro activity, MIC of strain group (Table 2); format: cell-based; details: Escherichia coli, 13 strains, read-out: Geometric mean of MIC
Method: as §1

H. influenzae = assay: In vitro activity, MIC of strain group (Table 2); format: cell-based; details: Haemophilus influenzae; Gn-IV H. influenzae, 4 strains; read-out: Geometric mean of MIC
Method: as §1

Indole(+) Proteus sp. = assay: In vitro activity, MIC of strain group (Table 2); format: cell-based; details: Gn-II Indole(+) Proteus sp., 8 strains; read-out: Geometric mean of MIC
Method: as §1

K. pneumoniae (Gn-Ia) = assay: In vitro activity, MIC of strain group (Table 2); format: cell-based; details: Klebsiella pneumoniae, 10 strains, read-out: Geometric mean of MIC
Method: as §1

K. pneumoniae (Gn-Ib) = assay: In vitro activity, MIC of strain group (Table 2); format: cell-based; details: Klebsiella pneumoniae, 5 strains, read-out: Geometric mean of MIC
Method: as §1

Neisseria sp. = assay: In vitro activity, MIC of strain group (Table 2); format: cell-based; details: Gn-IV Neisseria sp., 6 strains; read-out: Geometric mean of MIC
Method: as §1

P. aeruginosa = assay: In vitro activity, MIC of strain group (Table 2); format: cell-based; details: Pseudomonas aeruginosa; Gn-III P. aeruginosa, 32 strains; read-out: Geometric mean of MIC
Method: as §1

P. cepacia = assay: In vitro activity, MIC of strain group (Table 2); format: cell-based; details: Burkholderia cepacia; Gn-III P. cepacia, 4 strains; read-out: Geometric mean of MIC
Method: as §1

P. maltophilia = assay: In vitro activity, MIC of strain group (Table 2); format: cell-based; details: Stenotrophomonas maltophilia; Gn-III P. maltophilia, 13 strains; read-out: Geometric mean of MIC
Method: as §1

P. mirabilis (Gn-Ia) = assay: In vitro activity, MIC of strain group (Table 2); format: cell-based; details: Proteus mirabilis, 6 strains, read-out: Geometric mean of MIC
Method: as §1

P. mirabilis (Gn-Ib) = assay: In vitro activity, MIC of strain group (Table 2); format: cell-based; details: Proteus mirabilis, 2 strains, read-out: Geometric mean of MIC
Method: as §1

P. putida = assay: In vitro activity, MIC of strain group (Table 2); format: cell-based; details: Pseudomonas putida; Gn-III P. putida, 5 strains; read-out: Geometric mean of MIC
Method: as §1

P. stuartii = assay: In vitro activity, MIC of strain group (Table 2); format: cell-based; details: Providencia stuartii; Gn-II P. stuartii, 5 strains; read-out: Geometric mean of MIC
Method: as §1

S. aureus (Gp-Ia) = assay: In vitro activity, MIC of strain group (Table 2); format: cell-based; details: Staphylococcus aureus, 12 strains, read-out: Geometric mean of MIC
Method: as §1

S. aureus (Gp-Ib) = assay: In vitro activity, MIC of strain group (Table 2); format: cell-based; details: Staphylococcus aureus, 16 strains, read-out: Geometric mean of MIC
Method: as §1

S. marcescens = assay: In vitro activity, MIC of strain group (Table 2); format: cell-based; details: Serratia marcescens; Gn-II S. marcescens, 10 strains; read-out: Geometric mean of MIC
Method: as §1

S. pneumoniae = assay: In vitro activity, MIC of strain group (Table 2); format: cell-based; details: Streptococcus pneumoniae; Gp-II S. pneumoniae, 9 strains; read-out: Geometric mean of MIC
Method: as §1

S. pyogenes = assay: In vitro activity, MIC of strain group (Table 2); format: cell-based; details: Streptococcus pyogenes; Gp-II S. pyogenes, 10 strains; read-out: Geometric mean of MIC
Method: as §1

[1] = Mouse blood levels after intramuscular administration (Table 3); format: in vivo; details: im, read-out: Blood level; for concentration at 0.25 h: 15'; for concentration at 0.5 h: 30'; for concentration at 1 h: 60'; for concentration at 2 h: 120'
Method: (§2) […] The blood samples were collected from the orbital sinuses into heparinized capillary tubes at 15, 30, 60 and 120 minutes after administration. The antibiotic concentration was determined by the paper disc-agar diffusion method using E. coli NIHJ or S. lutea PCI 1001 as the assay organism.

[2] = Additional mouse blood levels after intramuscular administration (Table 4); format: in vivo; details: mice, im, read-out: Blood level
Method: as §2

S. aureus Smith A9537 = assay: In vivo efficacy, experimental infection in mice; details: Staphylococcus aureus, SMITHA9537, in Mus musculus, im, 120 h, read-out: PD50 (median protective dose)
Method: (§3) The mice were treated with test compound by im route immediately after the bacterial challenge.

S. pyogenes A20201 = assay: In vivo efficacy, experimental infection in mice; details: Streptococcus pyogenes, A20201, in Mus musculus, im, 120 h, read-out: PD50 (median protective dose)
Method: as §3

E. coli Juhl A15119 = assay: In vivo efficacy, experimental infection in mice; details: Escherichia coli, JUHLA15119, in Mus musculus, im, 120 h, read-out: PD50 (median protective dose)
Method: as §3

P. mirabilis A9900 = assay: In vivo efficacy, experimental infection in mice; details: Proteus mirabilis, A9900, in Mus musculus, im, 120 h, read-out: PD50 (median protective dose)
Method: as §3

P. aeruginosa A21509 = assay: In vivo efficacy, experimental infection in mice; details: Pseudomonas aeruginosa, A21509, in Mus musculus, im, 120 h, read-out: PD50 (median protective dose)
Method: as §3

For CN(C)Cc1ccc[n+](CC2=C(C(=O)[O-])N3C(=O)C(NC(=O)[C@H](NC(=O)c4cnc5cccnc5c4O)c4ccc(O)cc4)C3SC2)c1 (stereo partly drawn) [BB-S 651, 7-[D-α-(4-Hydroxy-1,5-naphthyridine-3-carboxamido)-α-(4-hydroxyphenyl)acetamido]-3-(3-N,N-dimethylaminomethylpyridinium)methyl-3-cephem-4-carboxylate Hydrochloride], the MIC (E. coli (Gn-Ia)) was 2.6 µg/mL, the MIC (E. coli (Gn-Ib)) was 29 µg/mL and the MIC (H. influenzae) was 0.8 µg/mL. The MIC (Indole(+) Proteus sp.) was > 100 µg/mL, the MIC (K. pneumoniae (Gn-Ia)) was 18 µg/mL and the MIC (K. pneumoniae (Gn-Ib)) was > 100 µg/mL. It also gave an MIC (Neisseria sp.) of 1.6 µg/mL, an MIC (P. aeruginosa) of 1.7 µg/mL and an MIC (P. cepacia) of 59 µg/mL. For the same compound, the MIC (P. maltophilia) was 14 µg/mL, the MIC (P. mirabilis (Gn-Ia)) was > 100 µg/mL and the MIC (P. mirabilis (Gn-Ib)) was > 100 µg/mL. The MIC (P. putida) was 22 µg/mL, the MIC (P. stuartii) was 1.6 µg/mL and the MIC (S. aureus (Gp-Ia)) was 3.7 µg/mL. The MIC (S. aureus (Gp-Ib)) was 42 µg/mL, the MIC (S. marcescens) was > 100 µg/mL and the MIC (S. pneumoniae) was 0.8 µg/mL. It also gave an MIC (S. pyogenes) of 0.4 µg/mL, a concentration at 0.25 h ([1]; 10 mg/kg) of 5000 ng/mL and a concentration at 0.5 h ([1]; 10 mg/kg) of 3000 ng/mL. For the same compound, the concentration at 1 h ([1]; 10 mg/kg) was < 400 ng/mL, the concentration at 2 h ([1]; 10 mg/kg) was < 400 ng/mL and the concentration at 0.25 h ([1]; 20 mg/kg) was 11000 ng/mL. For the same compound, the concentration at 0.5 h ([1]; 20 mg/kg) was 9000 ng/mL, the concentration at 1 h ([1]; 20 mg/kg) was 5000 ng/mL and the concentration at 2 h ([1]; 20 mg/kg) was < 400 ng/mL. The concentration at 0.25 h ([1]; 40 mg/kg) was 25000 ng/mL, the concentration at 0.5 h ([1]; 40 mg/kg) was 18000 ng/mL and the concentration at 1 h ([1]; 40 mg/kg) was 11000 ng/mL. The concentration at 2 h ([1]; 40 mg/kg) was 3000 ng/mL, the concentration at 0.5 h ([2]; 10 mg/kg, dose 10, 1/2 hour) was 3300 ng/mL and the concentration at 0.25 h ([2]; 10 mg/kg, dose 10, 1/4 hour) was 4300 ng/mL. For the same compound, the concentration at 1 h ([2]; 10 mg/kg, dose 10, 1 hour) was 2500 ng/mL, the concentration at 2 h ([2]; 10 mg/kg, dose 10, 2 hour) was < 800 ng/mL and the concentration at 0.5 h ([2]; 20 mg/kg, dose 20, 1/2 hour) was 7400 ng/mL. For the same compound, the concentration at 0.25 h ([2]; 20 mg/kg, dose 20, 1/4 hour) was 10000 ng/mL, the concentration at 1 h ([2]; 20 mg/kg, dose 20, 1 hour) was 5800 ng/mL and the concentration at 2 h ([2]; 20 mg/kg, dose 20, 2 hour) was < 800 ng/mL. The concentration at 0.5 h ([2]; 40 mg/kg, 1/2 hour) was 14000 ng/mL, the concentration at 0.25 h ([2]; 40 mg/kg, 1/4 hour) was 20000 ng/mL and the concentration at 1 h ([2]; 40 mg/kg, 1 hour) was 10000 ng/mL. It also gave a concentration at 2 h ([2]; 40 mg/kg, 2 hour) of 3000 ng/mL, an ED50 (S. aureus Smith A9537) of 1.1 mg/kg and an ED50 (S. pyogenes A20201) of 1.1 mg/kg. The ED50 (E. coli Juhl A15119) was 1.9 mg/kg, the ED50 (P. mirabilis A9900) was > 25 mg/kg and the ED50 (P. aeruginosa A21509) was 3.2 mg/kg.

In the case of CCN1CCN(C(=O)N[C@@H](C(=O)N[C@@H]2C(=O)N3C(C(=O)O)=C(CSc4nnnn4C)CS[C@H]23)c2ccc(O)cc2)C(=O)C1=O [Cefoperazone, reference compound], the MIC (E. coli (Gn-Ia)) is reported as 0.2 µg/mL, the MIC (E. coli (Gn-Ib)) is reported as 3.7 µg/mL and the MIC (H. influenzae) is reported as 0.8 µg/mL. It also gave an MIC (Indole(+) Proteus sp.) of 3.5 µg/mL, an MIC (K. pneumoniae (Gn-Ia)) of 0.9 µg/mL and an MIC (K. pneumoniae (Gn-Ib)) of 100 µg/mL. For the same compound, the MIC (Neisseria sp.) was 0.8 µg/mL, the MIC (P. aeruginosa) was 11 µg/mL and the MIC (P. cepacia) was > 100 µg/mL. The MIC (P. maltophilia) was 47 µg/mL, the MIC (P. mirabilis (Gn-Ia)) was 0.8 µg/mL and the MIC (P. mirabilis (Gn-Ib)) was 12.5 µg/mL. For the same compound, the MIC (P. putida) was > 100 µg/mL, the MIC (P. stuartii) was 0.8 µg/mL and the MIC (S. aureus (Gp-Ia)) was 1.6 µg/mL. The MIC (S. aureus (Gp-Ib)) was 17 µg/mL, the MIC (S. marcescens) was 47 µg/mL and the MIC (S. pneumoniae) was 0.8 µg/mL. The MIC (S. pyogenes) was 0.2 µg/mL, the concentration at 0.25 h ([1]; 10 mg/kg) was 3500 ng/mL and the concentration at 0.5 h ([1]; 10 mg/kg) was 1800 ng/mL. For the same compound, the concentration at 1 h ([1]; 10 mg/kg) was < 400 ng/mL, the concentration at 2 h ([1]; 10 mg/kg) was < 400 ng/mL and the concentration at 0.25 h ([1]; 20 mg/kg) was 9000 ng/mL. For the same compound, the concentration at 0.5 h ([1]; 20 mg/kg) was 5500 ng/mL, the concentration at 1 h ([1]; 20 mg/kg) was 1300 ng/mL and the concentration at 2 h ([1]; 20 mg/kg) was < 400 ng/mL. It also gave a concentration at 0.25 h ([1]; 40 mg/kg) of 19000 ng/mL, a concentration at 0.5 h ([1]; 40 mg/kg) of 14000 ng/mL and a concentration at 1 h ([1]; 40 mg/kg) of 2500 ng/mL. The concentration at 2 h ([1]; 40 mg/kg) was < 400 ng/mL, the concentration at 0.5 h ([2]; 10 mg/kg, dose 10, 1/2 hour) was 3500 ng/mL and the concentration at 0.25 h ([2]; 10 mg/kg, dose 10, 1/4 hour) was 5000 ng/mL. For the same compound, the concentration at 1 h ([2]; 10 mg/kg, dose 10, 1 hour) was 1200 ng/mL, the concentration at 2 h ([2]; 10 mg/kg, dose 10, 2 hour) was < 800 ng/mL and the concentration at 0.5 h ([2]; 20 mg/kg, dose 20, 1/2 hour) was 6300 ng/mL. The concentration at 0.25 h ([2]; 20 mg/kg, dose 20, 1/4 hour) was 10500 ng/mL, the concentration at 1 h ([2]; 20 mg/kg, dose 20, 1 hour) was 2500 ng/mL and the concentration at 2 h ([2]; 20 mg/kg, dose 20, 2 hour) was < 800 ng/mL. The concentration at 0.5 h ([2]; 40 mg/kg, 1/2 hour) was 12000 ng/mL, the concentration at 0.25 h ([2]; 40 mg/kg, 1/4 hour) was 18000 ng/mL and the concentration at 1 h ([2]; 40 mg/kg, 1 hour) was 5400 ng/mL. For the same compound, the concentration at 2 h ([2]; 40 mg/kg, 2 hour) was 1200 ng/mL, the ED50 (S. aureus Smith A9537) was 2.4 mg/kg and the ED50 (S. pyogenes A20201) was 2.5 mg/kg. It also gave an ED50 (E. coli Juhl A15119) of 1.1 mg/kg, an ED50 (P. mirabilis A9900) of 6.3 mg/kg and an ED50 (P. aeruginosa A21509) of 30 mg/kg.
